In patent publication US6737383B1, “Herbicidal oxadiazolidines” (priority 1999, dated 2004):

Key:
[1] = test system: rice; assay: Test B flood test rice; assay type: in vivo, Oryza sativa
Method in brief: (§1)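 Flood test on plants grown to the 2-leaf stage; treated plants kept in greenhouse twelve to sixteen days, then visually rated against controls on a 0 (no effect) to 10 (complete control) scale.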

[2] = test system: giant foxtail; assay: Test B pre/postemergence giant foxtail; assay type: in vivo, Setaria faberii
Method in brief: (§2)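 Test chemicals in a non-phytotoxic solvent mixture with surfactant were sprayed preemergence onto planted seeds and postemergence onto plants 2 to 18 cm tall (1- to 4-leaf stage). After twelve to sixteen days in a greenhouse, injury was visually rated against untreated controls from 0 (no effect) to 10 (complete control).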

[3] = test system: blackgrass; assay: Test B pre/postemergence blackgrass; assay type: in vivo, Alopecurus myosuroides
Method in brief: as §2

[4] = test system: bedstraw; assay: Test B pre/postemergence bedstraw; assay type: in vivo, Galium aparine
Method in brief: as §2

[5] = test system: soybean; assay: Test B pre/postemergence soybean; assay type: in vivo, Glycine max
Method in brief: as §2

[6] = test system: wheat; assay: Test B pre/postemergence wheat; assay type: in vivo, Triticum aestivum
Method in brief: as §2

[7] = test system: morningglory; assay: Test B pre/postemergence morningglory; assay type: in vivo, Ipomoea hederacea
Method in brief: as §2

[8] = test system: pigweed; assay: Test B pre/postemergence pigweed; assay type: in vivo, Amaranthus retroflexus
Method in brief: as §2

[9] = test system: rape; assay: Test B pre/postemergence rape; assay type: in vivo, Brassica napus
Method in brief: as §2

[10] = test system: velvetleaf; assay: Test B pre/postemergence velvetleaf; assay type: in vivo, Abutilon theophrasti
Method in brief: as §2

[11] = test system: cocklebur; assay: Test B pre/postemergence cocklebur; assay type: in vivo, Xanthium strumarium
Method in brief: as §2

[12] = test system: sugar beet; assay: Test B pre/postemergence sugar beet; assay type: in vivo, Beta vulgaris
Method in brief: as §2

[13] = test system: surinam grass; assay: Test B pre/postemergence surinam grass; assay type: in vivo, Brachiaria decumbens
Method in brief: as §2

[14] = test system: corn; assay: Test B pre/postemergence corn; assay type: in vivo, Zea mays
Method in brief: as §2

[15] = test system: smallflower flatsedge; assay: Test B flood test smallflower flatsedge; assay type: in vivo, Cyperus difformis
Method in brief: as §1

[16] = test system: wild oat; assay: Test B pre/postemergence wild oat; assay type: in vivo, Avena fatua
Method in brief: as §2

[17] = Rate 62 g/ha, headed Pre-emergence (flood test species), scale 0 to 10 (0 no effect, 10 complete control)
[18] = Rate 125 g/ha, Pre-emergence, flood test species, scale 0 to 10 where 0 is no effect and 10 is complete control
[19] = Rate 250 g/ha, Pre-emergence, flood-test species, scale 0 to 10, 0 is no effect, 10 is complete control
[20] = Preemergence, Rate 62 g/ha, scale of 0 to 10 where 0 is no effect and 10 is complete control
[21] = Preemergence, Rate 125 g/ha, 0 is no effect, 10 is complete control
[22] = Preemergence, Rate 250 g/ha, scale 0 to 10, 0 is no effect, 10 is complete control
[23] = Preemergence, Rate 500 g/ha, scale of 0 to 10 where 0 is no effect and 10 is complete control
[24] = Rate 62 g/ha, Postemergence, scale of 0 to 10 where 0 is no effect and 10 is complete control
[25] = Rate 125 g/ha, Postemergence, scale 0 to 10
[26] = Rate 500 g/ha, Postemergence, scale 0 to 10

CCC(CC)N(C(=O)n1oc(=O)n(-c2ccccc2C)c1=O)c1ccc(F)cc1 [Compound 193]
Rice plant response rating [1, 17]: 0 | Rice plant response rating [1, 18]: 0 | Rice plant response rating [1, 19]: 0 | Plant response rating, Rice ([1]; Rate 500 g/ha, headed Pre-emergence (flood test species), scale 0 to 10 (0 no effect, 10 complete control)): 0 | Giant foxtail plant response rating [2, 20]: 2 | Giant foxtail plant response rating (0 to 10 scale) [2, 21]: 4 | Giant foxtail plant response rating [2, 22]: 5 | Plant response rating, Giant foxtail [2, 23]: 6 | Giant foxtail plant response rating [2, 24]: 0 | Giant foxtail plant response rating [2, 25]: 0 | Plant response rating (0 to 10; 0 is no effect, 10 is complete control), Giant foxtail ([2]; Rate 250 g/ha, Postemergence): 0 | Giant foxtail plant response rating [2, 26]: 0 | Blackgrass plant response rating [3, 20]: 0 | Blackgrass plant response rating (0 to 10 scale) [3, 21]: 0 | Blackgrass plant response rating [3, 22]: 0 | Plant response rating, Blackgrass [3, 23]: 0 | Blackgrass plant response rating [3, 24]: 0 | Blackgrass plant response rating [3, 25]: 0 | Plant response rating (0 to 10; 0 is no effect, 10 is complete control), Blackgrass ([3]; Rate 250 g/ha, Postemergence): 0 | Blackgrass plant response rating [3, 26]: 0 | Bedstraw plant response rating [4, 20]: 0 | Bedstraw plant response rating (0 to 10 scale) [4, 21]: 0 | Bedstraw plant response rating [4, 22]: 0 | Plant response rating, Bedstraw [4, 23]: 0 | Bedstraw plant response rating [4, 24]: 0 | Bedstraw plant response rating [4, 25]: 0 | Plant response rating (0 to 10; 0 is no effect, 10 is complete control), Bedstraw ([4]; Rate 250 g/ha, Postemergence): 0 | Bedstraw plant response rating [4, 26]: 0 | Soybean plant response rating [5, 20]: 0 | Soybean plant response rating (0 to 10 scale) [5, 21]: 0 | Soybean plant response rating [5, 22]: 0 | Plant response rating, Soybean [5, 23]: 0 | Soybean plant response rating [5, 24]: 0 | Soybean plant response rating [5, 25]: 1 | Plant response rating (0 to 10; 0 is no effect, 10 is complete control), Soybean ([5]; Rate 250 g/ha, Postemergence): 1 | Soybean plant response rating [5, 26]: 2 | Wheat plant response rating [6, 20]: 0 | Wheat plant response rating [6, 22]: 0 | Plant response rating, Wheat [6, 23]: 0 | Wheat plant response rating [6, 24]: 0 | Wheat plant response rating [6, 25]: 0 | Plant response rating (0 to 10; 0 is no effect, 10 is complete control), Wheat ([6]; Rate 250 g/ha, Postemergence): 0 | Morningglory plant response rating [7, 20]: 0 | Morningglory plant response rating (0 to 10 scale) [7, 21]: 0 | Morningglory plant response rating [7, 22]: 0 | Plant response rating, Morningglory [7, 23]: 0 | Morningglory plant response rating [7, 24]: 0 | Morningglory plant response rating [7, 25]: 0 | Plant response rating (0 to 10; 0 is no effect, 10 is complete control), Morningglory ([7]; Rate 250 g/ha, Postemergence): 1 | Morningglory plant response rating [7, 26]: 2 | Redroot pigweed plant response rating [8, 20]: 0 | Redroot pigweed plant response rating (0 to 10 scale) [8, 21]: 0 | Redroot pigweed plant response rating [8, 22]: 0 | Plant response rating, Redroot pigweed [8, 23]: 0 | Redroot pigweed plant response rating [8, 24]: 0 | Redroot pigweed plant response rating [8, 25]: 0 | Plant response rating (0 to 10; 0 is no effect, 10 is complete control), Redroot pigweed ([8]; Rate 250 g/ha, Postemergence): 0 | Redroot pigweed plant response rating [8, 26]: 0 | Rape plant response rating [9, 20]: 0 | Rape plant response rating (0 to 10 scale) [9, 21]: 0 | Rape plant response rating [9, 22]: 0 | Plant response rating, Rape [9, 23]: 0 | Rape plant response rating [9, 24]: 0 | Rape plant response rating [9, 25]: 0 | Plant response rating (0 to 10; 0 is no effect, 10 is complete control), Rape ([9]; Rate 250 g/ha, Postemergence): 0 | Rape plant response rating [9, 26]: 0 | Velvetleaf plant response rating [10, 20]: 0 | Velvetleaf plant response rating [10, 22]: 0 | Plant response rating, Velvetleaf [10, 23]: 0 | Velvetleaf plant response rating [10, 24]: 0 | Velvetleaf plant response rating [10, 25]: 0 | Plant response rating (0 to 10; 0 is no effect, 10 is complete control), Velvetleaf ([10]; Rate 250 g/ha, Postemergence): 0 | Cocklebur plant response rating [11, 20]: 0 | Cocklebur plant response rating (0 to 10 scale) [11, 21]: 0 | Cocklebur plant response rating [11, 22]: 0 | Plant response rating, Cocklebur [11, 23]: 0 | Cocklebur plant response rating [11, 24]: 0 | Cocklebur plant response rating [11, 25]: 0 | Plant response rating (0 to 10; 0 is no effect, 10 is complete control), Cocklebur ([11]; Rate 250 g/ha, Postemergence): 0 | Cocklebur plant response rating [11, 26]: 0 | Sugarbeets plant response rating [12, 20]: 0 | Sugarbeets plant response rating (0 to 10 scale) [12, 21]: 0 | Sugarbeets plant response rating [12, 22]: 0 | Plant response rating, Sugarbeets [12, 23]: 0 | Sugarbeets plant response rating [12, 24]: 0 | Sugarbeets plant response rating [12, 25]: 0 | Plant response rating (0 to 10; 0 is no effect, 10 is complete control), Sugarbeets ([12]; Rate 250 g/ha, Postemergence): 0 | Sugarbeets plant response rating [12, 26]: 0 | B. signalgrass plant response rating [13, 20]: 0 | B. signalgrass plant response rating (0 to 10 scale) [13, 21]: 0 | B. signalgrass plant response rating [13, 22]: 0 | Plant response rating, B. signalgrass [13, 23]: 0 | B. signalgrass plant response rating [13, 24]: 0 | B. signalgrass plant response rating ([13]; Rate 125 g/ha, Postemergence, scale 0 (no effect) to 10 (complete control)): 0 | Plant response rating, B. signalgrass ([13]; Rate 250 g/ha, Postemergence, scale 0 to 10, 0 is no effect, 10 is complete control): 0 | B. signalgrass plant response rating ([13]; Rate 500 g/ha, Postemergence, scale 0 to 10, 0 no effect, 10 complete control): 0 | Corn plant response rating [14, 20]: 0 | Corn plant response rating (0 to 10 scale) [14, 21]: 0 | Corn plant response rating [14, 22]: 0 | Plant response rating, Corn [14, 23]: 0 | Corn plant response rating [14, 24]: 0 | Corn plant response rating [14, 25]: 0 | Plant response rating (0 to 10; 0 is no effect, 10 is complete control), Corn ([14]; Rate 250 g/ha, Postemergence): 0 | Corn plant response rating [14, 26]: 0 | S. Flatsedge plant response rating [15, 17]: 0 | S. Flatsedge plant response rating [15, 18]: 0 | S. Flatsedge plant response rating [15, 19]: 0 | S. Flatsedge plant response rating ([15]; Rate 500 g/ha, Pre-emergence, flood test species, scale 0 to 10 (0 no effect, 10 complete control)): 0 | Wild oats plant response rating [16, 20]: 0 | Wild oats plant response rating [16, 22]: 0 | Plant response rating, Wild oats [16, 23]: 0 | Wild oats plant response rating [16, 24]: 0 | Wild oats plant response rating [16, 25]: 0 | Plant response rating (0 to 10; 0 is no effect, 10 is complete control), Wild oats ([16]; Rate 250 g/ha, Postemergence): 0
